For one data set, the system named is switchgrass stands. The settings on record: in vivo; cited from earlier work.
Data set [1] relates to Alamo (Cycle0) lowland switchgrass. As to the kind of experiment: Agar/growth chamber germination on water agar + imazapic. It is filed as in vivo, Panicum virgatum. The settings on record: controlled conditions. The text has this:
(§1) Since field emergence relies on soil tilth, rainfall, planter depth, and a host of other conditions, the inventors opted for a more uniform method of testing resistance: imazapic-dosed water agar. Data from germination under controlled conditions indicated significant progress for resistance to imazapic (Table 3) over three cycles of selection.

The next data set deals with PanIR Cycle3 switchgrass. The description is as above. It is filed as in vivo, Panicum virgatum. The settings on record: 2.3 times higher rate, controlled conditions.
Source text: as §1

For data set [2], the system named is Indiangrass (resistant check). As to the kind of experiment: Field emergence: seedlings surviving imazapic application. It is filed as in vivo, Sorghastrum nutans. The settings on record: 14 oz/A. As for the experimental part: (§2) Plants were seeded in July and August of 2014 and during May of 2015. Data presented in Table 4 indicates 2014 testing at three locations (Brooksville, Newton, and Starkville). At all locations, PanIR seedling numbers exceeded all other generations of selection as well as the resistant check (indiangrass).

Data set [3] concerns Alamo (Cycle 0) switchgrass. The description is as above. The settings on record: 14 oz/A. It is filed as in vivo, Panicum virgatum. As for the experimental part:
as §2

For the next data set, the system named is Cycle 1 switchgrass. Described as above. It is filed as in vivo, Panicum virgatum. The settings on record: 14 oz/A. The method, then: as §2
Another data set deals with Cycle 2 switchgrass. The description is as above. It is filed as in vivo, Panicum virgatum. The settings on record: 14 oz/A. As for the experimental part:
as §2

Data set [4] has as its system PanIR (Cycle 3) switchgrass. Described as above. It is filed as in vivo, Panicum virgatum. The settings on record: 14 oz/A. As for the experimental part:
as §2

The next data set has as its system Rapid Germ Switchgrass. The description is as above. It is filed as in vivo, Panicum virgatum. The settings on record: 14 oz/A. The method, then: as §2
Data set [5] deals with Alamo switchgrass seedlings (Cycle0). As to the kind of experiment: Herbicide screening of seedlings, Zero: First Generation Selection. It is filed as in vivo, Panicum virgatum. The method, then: Selection for herbicide resistance was conducted using methods similar to the study performed by Bahler and others (1983). Heavy duty plastic and metal trays measuring 51.5 cm×36.5 cm were used to hold the germinating seedlings during growth and also allowed for easy maintenance and efficient application of herbicide. The testing was conducted in a greenhouse that maintained a nightly temperature of 20° C. and a daily temperature of 30° C. Before the autumnal equinox, day length was not supplemented for the experiment. After the equinox, light was extended to 16 hrs. Day length is a concern due to switchgrass' photoperiodic nature. Eight trays represent a replicate, which were repeated over time. Each tray was filled with autoclaved field soil approximately ¾ full. A 2.5 cm×30.5 cm piece of PVC pipe was used to form ten micro-furrows spaced at 5 cm within each tray. Nine of the ten rows were planted with approximately […] Alamo switchgrass seed (Sharp Brothers, Healy, Kans.). The remaining, randomly selected row was planted with 250 indiangrass seed (MSU 3rd cycle of selection for precocious germination). One hundred (100) seed were evenly dispersed within each furrow of the flat; flats were top-dressed with 0.63 cm of autoclaved field soil. The trays were watered on a daily basis. Emergence of the seedlings usually took place 6-8 days after planting. Once the seedlings broke the soil surface, they were allowed to grow to the three leaf stage (approximately 14 days). A calibrated spray chamber was used to apply the herbicide to the seedlings in the trays. For imazapic, the recommended rate is 140 g a.i./ha on mixed grassland, applied with less than 93.54 liters of water per hectare, sprayed at a constant pressure of 40 psi. A spray adjuvant (nonionic surfactant) was added to the formulation. In order to achieve the correct amounts for the spray mixture, the following calculations were made: (8 fl.oz./1 ac.)×(1 ac./15 gal.sol.)×(1 gal./128 fl.oz.sol.)×(20 f.oz.sol./1 bottle)×(3785 ml/128 fl.oz.)=2.46 ml/1 bottle H2O (3-1) The formulation requires 2.46 mls of Plateau®, 1.5 mls of surfactant, and 556 mls of water to fill the spray bottle for the chamber. The trays were placed two at a time in the chamber and sprayed at a fixed speed ([…]) to ensure proper dosage. A dose response curve was conducted on the sixth trial to determine the rate of Plateau® that would kill a majority of the switchgrass seedlings (Table 1).
The upper limit was 245 g a.i./ha, which exceeded the labeled rate for big bluestem and indiangrass. […] Eight trays represented the curve and were assessed on the amount of discoloration relative to the unsprayed tray. […]

The subject of data set [6] is Cycle1 switchgrass seedlings. As to the kind of experiment: Herbicide screening of seedlings, First: Second Generation Selection. It is filed as in vivo. The method, then:
Subsequent testing of the first generation seed/seedlings was conducted in the same manner as the initial herbicide screenings. The planting of the trays consisted of 8 rows of the first generation, one row Alamo, and one row indiangrass (tolerant control).
Seedlings of Cycle1 (315,360) were screened for tolerance to 14 oz/A (2×) rate of Plateau®. Ninety-seven (97) survived the initial imazapic application. Sixty-eight (68) succumbed to a second (8 oz/A) application leaving twenty-nine (29) tolerant individuals which were planted in an isolated crossing block at Longview, Miss. (33.404999, −88.938283) as Cycle2.

Data set [7] has as its system switchgrass cultivars, Alamo and Kanlow. The settings on record: pre-plant application; cited from earlier work.

The text below walks through data of patent US10834886B2, “Switchgrass cultivar PanIR” (priority 2017, dated 2020).

With `CCNc1nc(Cl)nc(NC(C)C)n1` [atrazine], the “effect on switchgrass stands” value with switchgrass stands is given as “no deleterious effects”.

Consider `Cc1cnc(C2=NC(C)(C(C)C)C(=O)N2)c(C(=O)O)c1` (stereo not shown) [imazapic, 5-methyl-2-[4-methyl-5-oxo-4-(propan-2-yl)-4,5-dihydro-1H-imidazol-2-yl]pyridine-3-carboxylic acid], for which the “resistance as percentage of the population” value in [1] is “approximately 3%”; in the data set on PanIR Cycle3 switchgrass, “about 93.6%”. The “Number of seedlings surviving, 42 days after spraying” value (“Number of seedlings surviving” below) is on record as 16.25^†B* seedlings emerged per 30 cm of row in data set [2] (Brooksville 2014); 24.50^†B* seedlings emerged per 30 cm of row in data set [2] (Brooksville 2015); 14.50 B seedlings emerged per 30 cm of row in data set [2] (Newton 2014); 19.75 B seedlings emerged per 30 cm of row in data set [2] (Starkville 2014); 13.33 B seedlings emerged per 30 cm of row in [2] (Starkville 2015); 2.00 B seedlings emerged per 30 cm of row in data set [3] (Brooksville 2014). For the same compound, the “Number of seedlings surviving” value in data set [3] (Brooksville 2015) is recorded as 5.75 BC seedlings emerged per 30 cm of row; in [3] (Newton 2014) it was 6.50 B seedlings emerged per 30 cm of row; in data set [3] (Starkville 2014) it was 8.25 BC seedlings emerged per 30 cm of row; in data set [3] (Starkville 2015), 1.00 B seedlings emerged per 30 cm of row; with Cycle 1 switchgrass (Brooksville 2014), 8.25 B seedlings emerged per 30 cm of row; with Cycle 1 switchgrass (Brooksville 2015), 19.25 BC seedlings emerged per 30 cm of row. Further, the “Number of seedlings surviving” value is 10.25 B seedlings emerged per 30 cm of row with Cycle 1 switchgrass (Newton 2014); 3.25 C seedlings emerged per 30 cm of row in the data set with Cycle 1 switchgrass (Starkville 2014); 2.00 B seedlings emerged per 30 cm of row in the data set on Cycle 1 switchgrass (Starkville 2015); 14.25 B seedlings emerged per 30 cm of row in the data set on Cycle 2 switchgrass (Brooksville 2014); 18.75 BC seedlings emerged per 30 cm of row in the data set with Cycle 2 switchgrass (Brooksville 2015); 13.00 B seedlings emerged per 30 cm of row in the data set with Cycle 2 switchgrass (Newton 2014). Besides, the “Number of seedlings surviving” value is recorded as 13.75 BC seedlings emerged per 30 cm of row with Cycle 2 switchgrass (Starkville 2014); 5.67 B seedlings emerged per 30 cm of row in the data set with Cycle 2 switchgrass (Starkville 2015); 53.00 A seedlings emerged per 30 cm of row in data set [4] (Brooksville 2014); 115.75 A seedlings emerged per 30 cm of row in data set [4] (Brooksville 2015); 43.00 A seedlings emerged per 30 cm of row in data set [4] (Newton 2014); 49.50 A seedlings emerged per 30 cm of row in [4] (Starkville 2014). The “Number of seedlings surviving” value in [4] (Starkville 2015) is recorded as 16.00 A seedlings emerged per 30 cm of row; with Rapid Germ Switchgrass (Brooksville 2014) it was 2.75 B seedlings emerged per 30 cm of row; in the data set on Rapid Germ Switchgrass (Brooksville 2015) it was 0.00 C seedlings emerged per 30 cm of row; in the data set on Rapid Germ Switchgrass (Newton 2014), 2.00 B seedlings emerged per 30 cm of row; in the data set with Rapid Germ Switchgrass (Starkville 2014), 2.00 C seedlings emerged per 30 cm of row; in the data set with Rapid Germ Switchgrass (Starkville 2015) it was 1.00 B seedlings emerged per 30 cm of row. Further, the selection intensity in data set [5] (364,650 seedlings, 63 survivors, 245 g a.i./ha) is 0.0172%; in data set [5] (Cycle0 (Alamo): 63 individuals selected out of 306,000 seedlings), 0.0205%; in data set [6] (Cycle1: 29 seedlings selected out of 36,441 seedlings) it was 0.0795%. Also, in [5] (approximately 364,650 Alamo individuals screened, 8 oz/A), the “individuals surviving the initial screening” value stood at 78 individuals. In addition, the “individuals remaining in base population after second screening” value in data set [5] (the 78 survivors exposed to one-time application of 14 oz/A) is given as 63 individuals. In data set [6] (seedlings produced from the first cycle polycross of selection), the mortality rate entry is on record as “greater than 75%”.

Take `CCC(CC)Nc1c([N+](=O)[O-])cc(C)c(C)c1[N+](=O)[O-]` [Pendimethalin, pendimethalin]: the mortality of stands entry in data set [7] was “up to 50%”.
